How the values were obtained:
[1] = system: NF-kB reporter in Jurkat cells; assay: NF-kB reporter assay in Jurkat cells stimulated with aCD3/aCD28/PMA; type: cell-based; conditions: Homo sapiens; Jurkat cells, 1 hr compound pre-incubation, aCD3/aCD28/PMA stimulation 4 hr, One-Glo readout; read-out: NF-kB Reporter Assay IC50
Protocol: Jurkat cells were maintained in complete RPMI 1640 media supplemented with 10% FBS. Prior to the assay, 120 nL of the serial diluted compound was added in each well of 384-well flat bottom white plate (Corning #3570) by using liquid handler Echo550. Jurkat cells were harvested by centrifugation at 120 g for 10 min and resuspended in fresh RPMI 1640 media without serum. […] (25,000 cells) were seeded in each well of 384-well plate containing compound. After 1 hr incubation at 37° C. in a 5% CO2 incubator, […] of diluted aCD3/aCD28/PMA (final concentration at […] and […], respectively) in RPMI 1640 without serum were added to each well. After incubation at 37° C. in 5% CO2 for 4 hr, […] of One-Glo reagent (Promega #E6120) was added into each well. The plate was left at room temperature for 5 min and the signal was measured on EnVision (PerkinElmer).
Compounds in which an IC50 was not measured are designated as “N/A”.

Avi-tagged FL MALT-1 = Avi-tagged FL MALT-1 (Homo sapiens (Human), UniProt Q9UDY8); assay: MALT-1 Fluorogenic Peptide Cleavage Assay (MALT1 inhibition assay); type: biochemical; conditions: Ac-LRSR-AMC peptide substrate, 30 min pre-incubation, 90 min reaction at room temperature
Sequence of Avi-tagged FL MALT-1 (Q9UDY8 whole entry): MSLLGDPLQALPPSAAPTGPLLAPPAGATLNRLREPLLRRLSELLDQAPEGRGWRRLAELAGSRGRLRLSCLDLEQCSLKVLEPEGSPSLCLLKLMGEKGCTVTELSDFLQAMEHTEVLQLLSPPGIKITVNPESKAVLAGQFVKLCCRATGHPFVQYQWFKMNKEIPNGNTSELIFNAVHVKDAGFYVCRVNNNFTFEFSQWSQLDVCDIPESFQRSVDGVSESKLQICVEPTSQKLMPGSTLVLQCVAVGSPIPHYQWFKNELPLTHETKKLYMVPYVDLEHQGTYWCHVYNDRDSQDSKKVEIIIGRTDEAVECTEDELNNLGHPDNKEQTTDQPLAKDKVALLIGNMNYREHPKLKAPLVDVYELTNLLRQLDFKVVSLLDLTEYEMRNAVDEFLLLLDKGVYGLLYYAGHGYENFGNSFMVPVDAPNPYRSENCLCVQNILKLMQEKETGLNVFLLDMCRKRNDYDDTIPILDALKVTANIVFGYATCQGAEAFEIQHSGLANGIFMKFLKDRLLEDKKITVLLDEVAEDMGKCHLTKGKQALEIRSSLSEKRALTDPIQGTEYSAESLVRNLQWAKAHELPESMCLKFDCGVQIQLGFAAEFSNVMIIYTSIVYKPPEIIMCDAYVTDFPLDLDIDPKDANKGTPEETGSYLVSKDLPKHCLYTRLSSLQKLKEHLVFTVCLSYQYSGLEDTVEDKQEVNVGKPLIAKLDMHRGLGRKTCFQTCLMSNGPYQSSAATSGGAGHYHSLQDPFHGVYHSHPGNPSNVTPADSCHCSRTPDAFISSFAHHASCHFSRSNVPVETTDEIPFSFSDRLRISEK
Protocol: Inhibition of MALT1 activity by the presence of small molecules was evaluated using MALT-1 Fluorogenic Peptide Cleavage Assay. The assay utilizes a quenched AMC-labelled peptide that contains the MALT-1 recognition sequence and cleavage site (LRSR). MALT-1 mediated cleavage of the peptide relieves the quenching and leads to an increase in fluorescence at excitation (342 nm) and emission (441 nm).
The following reagents were obtained commercially and used to prepare standard reagent formulations as further described below: N-2-hydroxyethylpiperazine-N-2-ethane sulfonic acid (HEPES) (1 M, pH 7.5, stored at 4° C.), sodium citrate (stored at RT), tris(2-carboxyethyl) phosphine hydrochloride (T-CEP) (500 mM, stored at −20° C.), ethylenediaminetetraacetic acid (EDTA) (500 mM, stored at RT), dimethylsulfoxide (DMSO, stored at RT), 3-[(3-cholamido-propyl)dimethylammonio]-1-propane sulphate (CHAPS) (stored at RT), dimethylsulfoxide (DMSO), DMSO (Fisher Scientific, stored at RT), Avi-tagged FL MALT-1 (Pharmaron, stored at −70° C.), Ac-LRSR-AMC Peptide (SM Biochemicals, stored at −20° C.)., and ultrapure water (MILLLI-Q©).
The standard reagent formulations used in this assay were prepared and stored as follows. A 1.1 M solution of sodium citrate (161.3 g, 500 mL) was prepared and stored at room temperature. A 10% (w/v) CHAPS solution (2.0 g, 20 mL) was prepared and stored at 4° C. A 500 mM HEPES solution having pH of 6.89 was prepared from 200 mL of a 1 M HEPES solution having a pH of 7.5 using concentrated hydrochloric acid and brought to a final volume of 400 mL with MILLI-Q© H2O. The substrate, 10 mM Ac-LRSR-AMC Peptide, was prepared (10 mg, 1.370 mL DMSO) and stored at −20° C.
Compounds were plated to provide a 2% DMSO final concentration using a ProxiPlate-384 Plus F Black 384-shallow well microplate. The assay-ready plates were equilibrated to room temperature. A reaction buffer (30 mL total volume) was prepared by combining HEPES (pH 6.89, 25 mM, 1.5 mL), sodium citrate (660 mM, 18.0 mL), T-CEP (1 mM, 0.06 mL), EDTA ([…], 0.06 mL), CHAPS (0.05%, 0.15 mL), DMSO (2%, 0.6 mL), and MILLI-Q© H2O (10.23 mL; 9.63 mL when backfilled to 2% DMSO) followed by thorough mixing. DMSO was added only when compound plates had not been DMSO-backfilled to 2%.
MALT-1 was thawed and kept on ice. Peptide substrate was thawed on the bench under ambient conditions. A MALT-1 enzyme working stock was prepared from Avi-tagged FL MALT-1 (40 nM in a prepared reagent volume of 16.5 μL) and the reaction buffer (13.0 mL). MALT1 working stock (5 μL) was added to each well of the microplate. MALT-1 was pre-incubated with compounds for 30 minutes at room temperature.
Two substrate working stocks (Km and 10×Km) were prepared. The 1×Km substrate was prepared from Ac-LRSR-AMC Peptide (50 μM in a prepared reagent volume of 35.0 μL) and the reaction buffer (6.965 mL). The 10×Km substrate was prepared from Ac-LRSR-AMC Peptide (280 μM in a prepared reagent volume of 196.0 μL) and the reaction buffer (6.804 mL). The reaction was initiated by the addition of substrate working stock (5 μL, 50 μM) to Km plates and the addition of substrate working stock (5 μL 280 μM) to 10×Km plates. The plates were covered and incubated on the bench at room temperature for 90 minutes.
Fluorescence intensity was determined using a CLARIOstar microplate reader (BMG LABTECH) using the optimised AMC mode. Before taking readings, a 70% gain was applied on the neutral control well. Compound data were normalised to % Inhibition and used to plot sigmoidal concentration response curves to yield various parameters including IC50.

SMILES	IC50 [1]	IC50 (Avi-tagged FL MALT-1)
Cn1ncc2cccc(NS(=O)(=O)c3cnn(-c4ccnc(C(F)(F)F)c4)c3)c21 [Compound I-16, N-(1-Methyl-1H-Indazol-7-yl)-1-(2-(Trifluoromethyl)Pyridin-4-yl)-1H-Pyrazole-4-Sulfonamidemide]	> 2500 nM	> 2500 nM
Cn1ncc2ccc(C3CC3)c(NS(=O)(=O)c3cnn(-c4cncc(C(F)(F)F)c4)c3)c21 [Compound I-18]	400 to 1000 nM	≤ 400 nM
Cn1ncc2ccc(C3CC3)c(NS(=O)(=O)c3cnn(-c4ccc(C(F)(F)F)cn4)c3)c21 [Compound I-20, N-(6-Cyclopropyl-1-Methyl-1H-Indazol-7-yl)-1-(5-(Trifluoromethyl)Pyridin-2-yl)-1H-Pyrazole-4-Sulfonamide]	1000 to 2500 nM	1000 to 2500 nM
COc1ccc2cnn(C)c2c1NS(=O)(=O)c1cnn(-c2cc(C(F)(F)F)ncn2)c1 [Compound I-24, N-(6-Methoxy-1-Methyl-1H-Indazol-7-yl)-1-(6-(Trifluoromethyl)Pyrimidin-4-yl)-1H-Pyrazole-4-Sulfonamid]	400 to 1000 nM	400 to 1000 nM
CCc1ccc2cnn(C)c2c1NS(=O)(=O)c1cn(-c2ccnc(C(F)(F)F)c2)nn1 [Compound I-27, N-(6-Ethyl-1-Methyl-1H-Indazol-7-yl)-1-(2-(Trifluoromethyl) Pyridin-4-yl)-1H-1,2,3-Triazole-4-Sulfonamide]	> 2500 nM	400 to 1000 nM
CCc1ccc2cnn(C)c2c1NS(=O)(=O)c1cnn(-c2ccnc(C(F)(F)F)c2)n1 [Compound I-28, N-(6-Ethyl-1-Methyl-1H-Indazol-7-yl)-2-(2-(Trifluoromethyl) Pyridin-4-yl)-2H-1,2,3-Triazole-4-Sulfonamide]	400 to 1000 nM	≤ 400 nM
CCc1ccc2cnn(C)c2c1NS(=O)(=O)c1cn(-c2ccnc(C(F)(F)F)c2)nc1C [Compound I-29, N-(6-Ethyl-1-Methyl-1H-Indazol-7-yl)-3-Methyl-1-(2-(Trifluoromethyl)Pyridin-4-yl)-1H-Pyrazole-4-Sulfonamide]	400 to 1000 nM	≤ 400 nM
CCc1ccc2cnn(C)c2c1NS(=O)(=O)c1cnn(-c2ccnc(C(F)(F)F)c2)c1C [Compound I-30, N-(6-Ethyl-1-Methyl-1H-Indazol-7-yl)-5-Methyl-1-(2-(Trifluoromethyl)Pyridin-4-yl)-1H-Pyrazole-4-Sulfonamide]	1000 to 2500 nM	400 to 1000 nM
CCc1ccc2cnn(C)c2c1NS(=O)(=O)c1cnn(-c2ccnc(C)c2)c1 [Compound I-31, N-(6-Ethyl-1-Methyl-1H-Indazol-7-yl)-1-(2-Methylpyridin-4-yl)-1H-Pyrazole-4-Sulfonamide]	400 to 1000 nM	≤ 400 nM
CCc1ccc2cnn(C)c2c1NS(=O)(=O)c1cnn(-c2cc(C)nc(C)c2)c1 [Compound I-32, 1-(2,6-Dimethylpyridin-4-yl)-N-(6-ethyl-1-Methyl-1H-Indazol-7-yl)-1H-Pyrazole-4-Sulfonamide]	400 to 1000 nM	≤ 400 nM

More lines, now with the values ahead:

IC50 [1]	IC50 (Avi-tagged FL MALT-1)	SMILES
< 400 nM	≤ 400 nM	CCc1ccc2cnn(C)c2c1NS(=O)(=O)c1cnn(-c2cc(C(F)(F)F)ccn2)c1 [Compound I-14, N-(6-Ethyl-1-Methyl-1H-Indazol-7-yl)-1-(4-(Trifluoromethyl) Pyridin-2-yl)-1H-Pyrazole-4-Sulfonamide]
< 400 nM	400 to 1000 nM	Cn1ncc2cccc(NS(=O)(=O)c3cnn(-c4cc(C(F)(F)F)ccn4)c3)c21 [Compound I-15, N-(1-Methyl-1H-Indazol-7-yl)-1-(4-(Trifluoromethyl)Pyridin-2-yl)-1H-Pyrazole-4-Sulfonamide]
< 400 nM	≤ 400 nM	CCc1ccc2cnn(C)c2c1NS(=O)(=O)c1cnn(-c2cc(C(F)(F)F)ncn2)c1 [Compound I-19, N-(6-Ethyl-1-Methyl-1H-Indazol-7-yl)-1-(6-(Trifluoromethyl) Pyrimidin-4-yl)-1H-Pyrazole-4-Sulfonamide]
< 400 nM	≤ 400 nM	Cn1ncc2ccc(C3CC3)c(NS(=O)(=O)c3cnn(-c4ccnc(C(F)(F)F)c4)c3)c21 [Compound I-21, N-(6-cyclopropyl-1-Methyl-1H-Indazol-7-yl)-1-(2-(Trifluoromethyl)Pyridin-4-yl)-1H-Pyrazole-4-Sulfonamide]
< 400 nM	≤ 400 nM	COc1ccc2cnn(C)c2c1NS(=O)(=O)c1cnn(-c2ccc(C(F)(F)F)cn2)c1 [Compound I-22, N-(6-Methoxy-1-Methyl-1H-Indazol-7-yl)-1-(5-(Trifluoromethyl)Pyridin-2-yl)-1H-Pyrazole-4-Sulfonamide]
< 400 nM	≤ 400 nM	COc1ccc2cnn(C)c2c1NS(=O)(=O)c1cnn(-c2cncc(C(F)(F)F)c2)c1 [Compound I-23, N-(6-Methoxy-1-Methyl-1H-Indazol-7-yl)-1-(5-(Trifluoromethyl)Pyridin-3-yl)-1H-Pyrazole-4-Sulfonamide]
< 400 nM	≤ 400 nM	COc1ccc2cnn(C)c2c1N(C)S(=O)(=O)c1cnn(-c2ccnc(C(F)(F)F)c2)c1 [Compound I-25, N-(6-Methoxy-1-Methyl-1H-Indazol-7-yl)-N-methyl-1-(2-(Trifluoromethyl)Pyridin-4-yl)-1H-Pyrazole-4-Sulfonamide]
< 400 nM	≤ 400 nM	CCN(c1c(OC)ccc2cnn(C)c12)S(=O)(=O)c1cnn(-c2ccnc(C(F)(F)F)c2)c1 [Compound I-26, N-(6-Methoxy-1-Methyl-1H-Indazol-7-yl)-N-Ethyl-1-(2-(Trifluoromethyl)Pyridin-4-yl)-1H-Pyrazole-4-Sulfonamide]
< 400 nM	≤ 400 nM	CCc1ccc2cnn(C)c2c1NS(=O)(=O)c1cnn(-c2ccnc(C3CC3)c2)c1 [Compound I-33, 1-(2-Cyclopropylpyridin-4-yl)-N-(6-ethyl-1-Methyl-1H-Indazol-7-yl)-1H-Pyrazole-4-Sulfonamide]
< 400 nM	≤ 400 nM	CCc1ccc2cnn(C)c2c1NS(=O)(=O)c1cnn(-c2cc(C)ccn2)c1 [Compound I-34, N-(6-Ethyl-1-Methyl-1H-Indazol-7-yl)-1-(4-Methylpyridin-2-yl)-1H-Pyrazole-4-Sulfonamide]
< 400 nM	≤ 400 nM	COc1ccc2cnn(C)c2c1NS(=O)(=O)c1cnn(-c2cc(C)ccn2)c1 [Compound I-35, N-(6-Methoxy-1-Methyl-1H-Indazol-7-yl)-1-(4-Methylpyridin-2-yl)-1H-Pyrazole-4-Sulfonamide]

Source: patent US20240150321A1, “PYRAZOLYLSULFONAMIDE COMPOUNDS AND THEIR USE IN THERAPY” (HOTSPOT THERAPEUTICS, INC., priority 2022, published 2024)
